Assay results from US7893043B2, “2-methylene-(17Z)-17(20)-dehydro-19,21-dinor-vitamin D analogs” (Wisconsin Alumni Research Foundation, priority 2008, dated 2011).
pEC50, pKi: −log10 of the molar value. Entries after “also recorded” stand apart in the source; their conditions may differ. Like-named read-outs stand apart in the source and are kept apart here.

Assays:
[1] = test system: HL-60 cells; assay: HL-60 differentiation (nitro blue tetrazolium reduction); format: cell-based, human; conditions: differentiation of HL-60 cells into monocytes, FIG. 2, read-out: EC50, HL-60 cell differentiation
Description: The study drugs were dissolved in ethanol and the concentrations determined using UV spectrophotometry. Serial dilutions were prepared so that a range of drug concentrations could be tested without changing the final concentration of ethanol (≦0.2%) present in the cell cultures.
Human promyelocytic leukemia (HL60) cells were grown in RPMI-1640 medium containing 10% fetal bovine serum. The cells were incubated at 37° C. in the presence of 5% CO2.
HL60 cells were plated at 1.2×10^5 cells/ml. Eighteen hours after plating, cells in duplicate were treated with drug. Four days later, the cells were harvested and a nitro blue tetrazolium reduction assay was performed (Collins et al., 1979; J. Exp. Med. 149:969-974). The percentage of differentiated cells was determined by counting a total of 200 cells and recording the number that contained intracellular black-blue formazan deposits. Verification of differentiation to monocytic cells was determined by measuring phagocytic activity (data not shown).

[2] = test system: 24-hydroxylase (24Ohase) gene promoter; assay: In vitro transcription assay (24-hydroxylase promoter luciferase reporter in ROS 17/2.8 bone cells); format: cell-based; conditions: ROS 17/2.8 cells, FIG. 3, read-out: EC50, transcriptional activity in bone cells
Description: Transcription activity was measured in ROS 17/2.8 (bone) cells that were stably transfected with a 24-hydroxylase (24Ohase) gene promoter upstream of a luciferase reporter gene (Arbour et al., 1998). Cells were given a range of doses. Sixteen hours after dosing the cells were harvested and luciferase activities were measured using a luminometer.
RLU=relative luciferase units.

[3] = test system: bone calcium mobilization; assay: Bone calcium mobilization (serum calcium) in vitamin D-deficient rats; format: in vivo, rat
Description: (§1) Male, weanling Sprague-Dawley rats were placed on Diet 11 (0.47% Ca) diet +AEK oil for one week followed by Diet 11 (0.02% Ca) +AEK oil for 3 weeks. The rats were then switched to a diet containing 0.47% Ca for one week followed by two weeks on a diet containing 0.02% Ca. Dose administration began during the last week on 0.02% calcium diet. Four consecutive ip doses were given approximately 24 hours apart. Twenty-four hours after the last dose, blood was collected from the severed neck and the concentration of serum calcium determined as a measure of bone calcium mobilization. The first 10 cm of the intestine was also collected for intestinal calcium transport analysis using the everted gut sac method.
Calcium mobilization from bone and intestinal calcium absorption in vitamin D-deficient animals. Using vitamin D-deficient rats on a low calcium diet (0.02%), the activities of Vit II Z and 1,25(OH)2D3 in intestine and bone were tested. As expected, the native hormone (1,25(OH)2D3) increased serum calcium levels at all dosages (FIG. 4).

[4] = target: T1, full-length recombinant rat vitamin D receptor (Rattus norvegicus, UniProt P13053); assay: Vitamin D receptor binding, competition with [3H]-1,25(OH)2D3; conditions: FIG. 1
T1 construct: Full-length recombinant rat receptor was expressed in E. coli BL21 (DE3) Codon Plus RIL cells; histidine tag (C); made in house; host or cells: E. coli BL21 (DE3) Codon Plus RIL
T1 sequence (P13053 1-423): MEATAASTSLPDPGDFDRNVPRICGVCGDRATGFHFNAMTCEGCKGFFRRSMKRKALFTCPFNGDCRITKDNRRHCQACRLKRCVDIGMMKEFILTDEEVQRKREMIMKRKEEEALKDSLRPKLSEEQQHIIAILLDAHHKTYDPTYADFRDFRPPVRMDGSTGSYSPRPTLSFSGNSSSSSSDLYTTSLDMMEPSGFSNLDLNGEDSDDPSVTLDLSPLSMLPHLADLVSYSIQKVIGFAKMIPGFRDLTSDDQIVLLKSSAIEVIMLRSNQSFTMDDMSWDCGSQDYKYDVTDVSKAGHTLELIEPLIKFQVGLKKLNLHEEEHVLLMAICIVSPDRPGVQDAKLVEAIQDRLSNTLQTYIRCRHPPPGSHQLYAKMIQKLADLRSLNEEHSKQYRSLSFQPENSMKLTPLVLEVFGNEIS
Description: Full-length recombinant rat receptor was expressed in E. coli BL21 (DE3) Codon Plus RIL cells and purified to homogeneity using two different column chromatography systems. The first system was a nickel affinity resin that utilizes the C-terminal histidine tag on this protein. The protein that was eluted from this resin was further purified using ion exchange chromatography (S-Sepharose Fast Flow). Aliquots of the purified protein were quick frozen in liquid nitrogen and stored at −80° C. until use. For use in binding assays, the protein was diluted in TEDK50 (50 mM Tris, 1.5 mM EDTA, pH7.4, 5 mM DTT, 150 mM KCl) with 0.1% Chaps detergent. The receptor protein and ligand concentration were optimized such that no more than 20% of the added radiolabeled ligand was bound to the receptor.
Radiolabeled and unlabeled ligands were added to 100 mcl of the diluted protein at a final ethanol concentration of ≦10%, mixed and incubated overnight on ice to reach binding equilibrium. The following day, 100 mcl of hydroxylapatite slurry (50%) was added to each tube and mixed at 10-minute intervals for 30 minutes. […] After the final wash, the pellets were transferred to scintillation vials containing 4 ml of Biosafe II scintillation cocktail, mixed and placed in a scintillation counter. Total binding was determined from the tubes containing only radiolabeled ligand.

[5] = test system: intestinal calcium transport; assay: Intestinal calcium transport, everted gut sac method; format: in vivo, rat; conditions: for intestinal calcium transport: everted gut sac
Description: as §1
Intestinal calcium transport was evaluated in the same groups of animals using the everted gut sac method (FIG. 5). […] Thus, it may be concluded that Vit II Z has essentially similar intestinal calcium transport activity at the recommended lower doses to that of 1,25(OH)2D3.

| pEC50 ([1]; Homo sapiens) | VDR binding affinity compared to 1,25-(OH)2D3 [4] | pKi ([4]; full-length recombinant rat VDR) | Structure (SMILES) | pEC50 [2] | bone calcium mobilization activity compared to 1,25(OH)2D3 ([3]; 87 pmol/day and 780 pmol/day for 4 consecutive days, rats on 0.02% Ca diet) | bone calcium mobilization, effect of increasing the dose ([3]; 2340 pmol/day, rats on 0.02% Ca diet) | bone calcium mobilization activity compared to 1,25(OH)2D3 ([3]; vitamin D-deficient rats, ip, FIG. 4) | intestinal calcium transport ([5]; 29 pmol/day) | intestinal calcium transport ([5]; 2340 pmol/day) | intestinal calcium transport activity compared to 1,25(OH)2D3 ([5]; vitamin D-deficient rats, ip, FIG. 5) | pEC50 [1] | serum calcium levels ([3]; all dosages, rats on 0.02% Ca diet, FIG. 4) | intestinal calcium transport ([5]; at the tested doses) |
| --- | --- | --- | --- | --- | --- | --- | --- | --- | --- | --- | --- | --- | --- |
| 10.10 | nearly the same affinity | 9.70 | C=C1[C@H](O)CC(=C/C=C2\CCC[C@]3(C)/C(=C\CCCC(C)(C)O)CC[C@@H]23)C[C@H]1O [Vit II Z, 2-methylene-(17Z)-17(20)-dehydro-19,21-dinor-1α,25-dihydroxyvitamin D3] | 10.52 | about the same as or equal to | without any substantial additional effect | about the same or equal bone calcium mobilization activity | promotes intestinal calcium transport | very significant intestinal calcium transport activity | about the same or equal activity; also recorded: about the same as or equal to |  |  |  |
|  |  |  | C=C1/C(=C\C=C2/CCC[C@]3(C)[C@@H]([C@H](C)CCCC(C)(C)O)CC[C@@H]23)C[C@@H](O)C[C@@H]1O [1α,25-dihydroxyvitamin D3, reference compound] | 9.70 |  |  |  |  |  |  | 8.70 | increased | significant increase |
